Where two headings read alike, the source gives them in different places.
What was measured:
PDE4 = experiment: Evaluation of PDE4 inhibitory activity, scintillation proximity assay; assay type: biochemical; conditions: for PDE4 inhibitory activity: summary in words of Tables 57 to 69
How it was run: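 SPA with [2,8-3H]-cAMP and diluted PDE4 enzyme preparation in 50 mM Tris-HCl pH 7.4, 8.3 mM MgCl2, 1.7 mM EGTA, 3 mg/mL BSA, 120 min at room temperature. Product captured on ZnSO4-containing YSi-SPA beads, scintillation counted; IC50 from inhibition curves vs DMSO control and no-enzyme blank.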

[1] = system: oxazolone-induced auricle edema, BALB/c mice; experiment: Hapten repeated application mouse chronic dermatitis model (oral, topical); assay type: in vivo; conditions: for Mouse Chronic Dermatitis Model (Test Example 8), Oral: edema suppression rate: 0.3 to 10 mg/kg twice a day for 10 days; for Mouse Chronic Dermatitis Model (Test Example 8), Topical: edema suppression rate: 20 μL of 0.3 to 3% solution once or twice a day for 10 days
How it was run: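 Female BALB/c mice aged 7–8 weeks were sensitised abdominally with 3% oxazolone, then challenged on both ears with 1% oxazolone. From week 1, test compound was given for 10 days orally at 0.3–10 mg/kg twice daily in 0.5% MC, or topically at 0.3–3% once or twice daily. Ear-thickness change measured by dial gauge gave edema suppression versus vehicle control.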

[2] = system: oxazolone-induced auricle edema, BALB/c mice; experiment: Mouse delayed type hypersensitivity (DTH) model (topical); assay type: in vivo; conditions: 20 μL applied to auricle, 24 hours after application
Procedure: Evaluation was carried out using female BALB/c mice (7 to 8 weeks of age). First, the hair of the abdomen of the mice was treated with a hair clipper, and then 150 μL of a 3% oxazolone acetone/ethanol solution was applied to the abdomen as a hapten. Five days later, 20 μL/ear of a 1% oxazolone.acetone/ethanol solution was applied to the outer surface of the auricle of both ears of the mouse to induce inflammation. Thirty minutes after the start of inflammation induction, 20 μL of the test compound dissolved in an acetone/ethanol solution was applied to the auricle. A 1% oxazolone was not applied to the blank. The control was one in which 1% oxazolone was applied and only an acetone/ethanol solution was applied without using the test compound. The auricle thickness 24 hours after application of the test compound was measured with a dial thickness gauge, and the value obtained by subtracting the blank value was used to calculate the edema suppression rate by the following formula. Edema Suppression Rate (%)={1−(Value at Addition of Each Test Compound−Blank Value)/(Control Value−Blank Value)}×100 The measurement results obtained by measuring the edema suppression rate at the time of topical administration of each test compound by the above method were evaluated in accordance with the following evaluated basis; A: 60% or more, B: 40% or more and less than 60%, and C: less than 40%.

TGF-β = TGF-β inhibitory activity using THP1 cells differentiated into macrophages; assay type: cell-based; conditions: Homo sapiens, read-out: TFG-β Inhibitory Activity (Test Example 6)
Procedure: The TGF-β inhibitory activity was measured using THP1 cells as follows. First, THP1 cells were seeded on a 24-well culture plate at […], and culture was carried out overnight at 37° C. and 5% CO2 in RPMI-1640 medium (containing 10% fetal bovine serum, penicillin, and streptomycin) supplemented with 100 nM phorbol myristate acetate. After that, the cells were differentiated into macrophages by changing to RPMI-1640 medium without phorbol myristate acetate, followed by further culture at 37° C. under 5% CO2 overnight. Next, the THP1 culture plate was washed once with PBS(−) 1 mL/well, and then the test compound and lipopolysaccharide (final concentration 1 μg/mL) were added, followed by culture at 37° C. under 5% CO2 for about 7 hours. After culturing, the entire amount of the medium was collected, and the amount of TGF-β in the centrifuged supernatant was quantified by the sandwich ELISA method. The non-addition of lipopolysaccharide was used as a blank, and the control was obtained by adding only dimethyl sulfoxide instead of the test compound, and the inhibition rate of the test compound against the control was calculated by the following formula. Inhibition Rate (%)={1−(Value at Addition of Each Test Compound−Blank Value)/(Control Value−Blank Value)}×100
In addition, the TGF-β inhibitory activity (concentration for the inhibition rate of 50%) of the test compound was calculated from the inhibition curves based on the inhibition rate for various concentrations of the test compound.
The measurement results obtained by measuring the TFG-β inhibitory activity (50% inhibitory concentration) of the test compounds by the above method were evaluated in accordance with the following evaluated basis; A: less than 1 μM, and B: 1 μM or more.

[3] = finer grading of compounds rated A in Evaluation 1, read-out: PDE4 Inhibitory Activity (Evaluation 2)
[4] = scintillation proximity assay, read-out: PDE4 Inhibitory Activity (Evaluation 1; concentration for the inhibition rate of 50%)
[5] = THP-1, THP1 cells differentiated into macrophages, lipopolysaccharide 1 μg/mL, about 7 hours

Compound	IC50 (PDE4; [3]) [nM]	IC50 (PDE4; [4]) [nM]	PDE4 inhibitory activity (PDE4)	Mouse Chronic Dermatitis Model (Test Example 8), Oral: edema suppression rate [1]	Mouse Chronic Dermatitis Model (Test Example 8), Topical: edema suppression rate [1]	Mouse DTH Model (Test Example 11), Topical: edema suppression rate [2]	IC50 (PDE4; scintillation proximity assay, class symbols of Evaluation 1, read-out: PDE4 Inhibitory Activity (concentration for the inhibition rate of 50%, IC50), Evaluation 1) [nM]	IC50 (TGF-β; [5]) [nM]	IC50 (TGF-β; THP-1, 7 h) [nM]
CC(O)C(F)(F)Oc1ccc(-c2nccs2)c2oc(N3CC4CC(C3)N4)nc12 (single isomer, unassigned) [Example 252, 1-((2-(3,6-Diazabicyclo[3.1.1]heptan-3-yl)-7-(thiazol-2-yl)benzo[d]oxazol-4-yl)oxy)-1,1-difluoropropan-2-ol]	≤ 1	< 100	particularly excellent	A (A: 70% or more)	A (A: 100% or more)	B (B: 40% or more and less than 60%)			
FC(F)(F)Oc1ccc(-c2nccs2)c2oc(N3CC4CC(C3)N4)nc12 [Example 29, 2-(3,6-Diazabicyclo[3.1.1]heptan-3-yl)-7-(thiazol-2-yl)-4-(trifluoromethoxy)benzo[d]oxazole]	1 to 11		particularly excellent	A (A: 70% or more)	A (A: 100% or more)	A (A: 60% or more)	< 100	< 1000	
CC(C)(O)C(F)(F)Oc1ccc(-c2nccs2)c2oc(N3CC4CC(C3)N4)nc12 [Example 248, 1-((2-(3,6-Diazabicyclo[3.1.1]heptan-3-yl)-7-(thiazol-2-yl)benzo[d]oxazol-4-yl)oxy)-1,1-difluoro-2-methylpropan-2-ol]	≤ 1	< 100	particularly excellent	A (A: 70% or more)	A (A: 100% or more)	A (A: 60% or more)		< 1000	
CCOc1cc([C@@H](CS(C)(=O)=O)N2C(=O)c3cccc(NC(C)=O)c3C2=O)ccc1OC [apremilast, reference compound]	11 to 100			B (B: 40% or more and less than 70%)					> 1000

Reference: patent publication US12239643B2, “Therapeutic agent for inflammatory diseases, autoimmune diseases, fibrotic diseases, and cancer diseases” (MEIJI SEIKA PHARMA CO., LTD., priority 2018, dated 2025)
